In paper PMC9290008 (ACS Medicinal Chemistry Letters, 2022):

Assay: GSH incorporation experiments
Type: in vitro ADME, human
Settings: 10 μM compound, GSH 5 mM, 37 °C, 30 min; for % GSH + HLM: presence of HLM; for %GSH − HLM: absence of HLM

Structure (SMILES) | % GSH + HLM | %GSH − HLM
Clc1ncc(Cl)c(-n2ccc3ncccc32)n1 [Compound 1] | 96.0% | –
Clc1nccc(-n2ccc3ncccc32)n1 [Compound 8] | 53.5% | 0.1%
Clc1ncc(Cl)c(-n2ccc3ncncc32)n1 [Compound 20] | 99.9% | 2.5%
Clc1ncc(Cl)c(-c2c[nH]c3ncncc23)n1 [Compound 21] | 16.1% | 0%
N#Cc1ccc(Cl)nc1-n1ccc2ncncc21 [Compound 23] | 49.9% | 2.8%
